For this test, the system named is modified version of the GPR119 receptor (94% identity to human receptor). The test can be described thus: cAMP production assay (LANCE cAMP kit, TR-FRET) in HEK-293 cells. Type of test: cell-based. Particulars: for cAMP production in HEK-293 cells: HEK-293 cells stably expressing modified GPR119, test compounds 0.2 nM to 10 μM, one-hour incubation at ambient temperature; for Fold over baseline: increase in cAMP relative to basal levels, agonist activity if 1.5-fold or greater. In outline:
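Doxycycline-induced (1 μg/mL, overnight) HEK-293 cells expressing modified GPR119 were thawed, 2000 cells/well, and exposed to compounds (0.2 nM-10 μM final, 0.5% DMSO) for 1 h at ambient temperature in HBSS/HEPES/BSA. cAMP was measured by LANCE TR-FRET against a standard curve. Agonism was defined as ≥1.5-fold over basal.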
For orientation: cAMP levels reflect the balance of adenylyl cyclase and phosphodiesterase activity.

As to `CN(C)C(=O)c1ccc(O[C@H]2CCN(C3CCN(c4ncc(Cl)cc4F)CC3)C2=O)cn1` [Example 149, (S)-5-(1-(1-(5-chloro-3-fluoropyridin-2-yl)piperidin-4-yl)-2-oxopyrrolidin-3-yloxy)-N,N-dimethylpicolinamide], the “cAMP production in HEK-293 cells” value was 6.8 nmol and the Fold over baseline is 1.5.

Regarding `N#Cc1ccc(N[C@H]2CCN(C3CCN(c4ncc(C(F)(F)F)cc4Cl)CC3)C2=O)nn1` [Example 150, (S)-6-(1-(1-(3-chloro-5-(trifluoromethyl)pyridin-2-yl)piperidin-4-yl)-2-oxopyrrolidin-3-ylamino)pyridazine-3-carbonitrile], the “cAMP production in HEK-293 cells” value came out at 17.1 nmol and the Fold over baseline is reported as 3.4.

As to `O=C(c1ccc(O[C@H]2CCN(C3CCN(c4ncc(C(F)(F)F)cc4Cl)CC3)C2=O)c(F)c1)N1CCCC1` [Example 151], the “cAMP production in HEK-293 cells” value came to 35.8 nmol and the Fold over baseline was 4.7.

In the case of `N#Cc1ccc(N[C@H]2CCN(C3CCN(c4ncc(C(F)(F)F)cc4Cl)CC3)C2=O)c(F)c1` [Example 152, (S)-4-(1-(1-(3-chloro-5-(trifluoromethyl)pyridin-2-yl)piperidin-4-yl)-2-oxopyrrolidin-3-ylamino)-3-fluorobenzonitrile], the “cAMP production in HEK-293 cells” value came to 26.6 nmol and the Fold over baseline is reported as 3.3.

Consider `O=C(c1ccc(O[C@H]2CCN(C3CCN(c4ncc(Cl)cc4F)CC3)C2=O)c(F)c1)N1CC[C@H](O)C1` [Example 153, (S)-1-(1-(5-chloro-3-fluoropyridin-2-yl)piperidin-4-yl)-3-(2-fluoro-4-((S)-3-hydroxypyrrolidine-1-carbonyl)phenoxy)pyrrolidin-2-one], for which the “cAMP production in HEK-293 cells” value was 14.3 nmol and the Fold over baseline was 3.1.

For the compound `CN(CCO)C(=O)c1ccc(O[C@H]2CCN(C3CCN(c4ncc(Cl)cc4F)CC3)C2=O)c(F)c1` [Example 154, (S)-4-(1-(1-(5-chloro-3-fluoropyridin-2-yl)piperidin-4-yl)-2-oxopyrrolidin-3-yloxy)-3-fluoro-N-(2-hydroxyethyl)-N-methylbenzamide], the “cAMP production in HEK-293 cells” value was found to be 14.6 nmol and the Fold over baseline worked out at 3.1.

On to `O=C(c1ccc(O[C@H]2CCN(C3CCN(c4ncc(Cl)cc4F)CC3)C2=O)c(F)c1)N1CC[C@@H](O)C1` [Example 155, (S)-1-(1-(5-chloro-3-fluoropyridin-2-yl)piperidin-4-yl)-3-(2-fluoro-4-((R)-3-hydroxypyrrolidine-1-carbonyl)phenoxy)pyrrolidin-2-one], for which the “cAMP production in HEK-293 cells” value worked out at 13.4 nmol and the Fold over baseline is reported as 2.5.

In the case of `CS(=O)(=O)c1ccc(N[C@H]2CCN(C3CCN(c4ncc(CO)cc4Cl)CC3)C2=O)c(F)c1` [Example 156, (S)-1-(1-(3-chloro-5-(hydroxymethyl)pyridin-2-yl)piperidin-4-yl)-3-(2-fluoro-4-(methylsulfonyl)phenylamino)pyrrolidin-2-one], the “cAMP production in HEK-293 cells” value was determined as 17.3 nmol and the Fold over baseline came to 2.3.

Regarding `CN(C)C(=O)c1cnc(N2CCC(N3CC[C@H](Nc4ccc(S(C)(=O)=O)cc4F)C3=O)CC2)c(Cl)c1` [Example 157, (S)-5-chloro-6-(4-(3-(2-fluoro-4-(methylsulfonyl)phenylamino)-2-oxopyrrolidin-1-yl)piperidin-1-yl)-N,N-dimethylnicotinamide], the “cAMP production in HEK-293 cells” value amounted to 8.3 nmol and the Fold over baseline is on record as 3.1.

Consider `CS(=O)(=O)c1ccc(N[C@H]2CCN(C3CCN(c4cnc(C(F)(F)F)nc4)CC3)C2=O)c(F)c1` [Example 158, (S)-3-(2-fluoro-4-(methylsulfonyl)phenylamino)-1-(1-(2-(trifluoromethyl)pyrimidin-5-yl)piperidin-4-yl)pyrrolidin-2-one], for which the “cAMP production in HEK-293 cells” value is 12.5 nmol and the Fold over baseline came to 3.2.

Consider `CCc1ncc(N2CCC(N3CC[C@H](Nc4ccc(S(C)(=O)=O)cc4F)C3=O)CC2)cn1` [Example 159, (S)-1-(1-(2-ethylpyrimidin-5-yl)piperidin-4-yl)-3-(2-fluoro-4-(methylsulfonyl)phenylamino)pyrrolidin-2-one], for which the “cAMP production in HEK-293 cells” value was 8.0 nmol and the Fold over baseline amounted to 2.0.

In the case of `COc1cnc(N2CCC(N3CC[C@H](Nc4ccc(S(C)(=O)=O)cc4F)C3=O)CC2)cn1` [Example 160, (S)-3-(2-fluoro-4-(methylsulfonyl)phenylamino)-1-(1-(5-methoxypyrazin-2-yl)piperidin-4-yl)pyrrolidin-2-one], the “cAMP production in HEK-293 cells” value is 22.3 nmol and the Fold over baseline was determined as 3.9.

For `CS(=O)(=O)c1ccc(N[C@H]2CCN(C3CCN(c4ncc(Cl)nc4Cl)CC3)C2=O)cn1` [Example 161, (S)-1-(1-(3,5-dichloropyrazin-2-yl)piperidin-4-yl)-3-(6-(methylsulfonyl)pyridin-3-ylamino)pyrrolidin-2-one], the “cAMP production in HEK-293 cells” value was found to be 13.8 nmol and the Fold over baseline is 3.6.

For the compound `CC1(C)CN(c2cnc(Cl)cn2)CCC1N1CC[C@H](Nc2ccc(S(C)(=O)=O)cc2F)C1=O` (stereo partly drawn) [Example 162, (3S)-1-(1-(5-chloropyrazin-2-yl)-3,3-dimethylpiperidin-4-yl)-3-(2-fluoro-4-(methylsulfonyl)phenylamino)pyrrolidin-2-one], the “cAMP production in HEK-293 cells” value turned out to be 16.2 nmol and the Fold over baseline was found to be 2.8.

For the compound `CS(=O)(=O)c1cc(F)c(O[C@H]2CCCN(C3CCN(c4ncc(C(F)(F)F)cc4F)CC3)C2=O)cc1F` [Example 163, (S)-3-(2,5-difluoro-4-(methylsulfonyl)phenoxy)-1′-(3-fluoro-5-(trifluoromethyl)pyridin-2-yl)-[1,4′-bipiperidin]-2-one], the “cAMP production in HEK-293 cells” value amounted to 18.3 nmol and the Fold over baseline is 3.9.

As for `CS(=O)(=O)c1cc(F)c(O[C@H]2CCCN(C3CCN(c4cnc(Cl)cn4)CC3)C2=O)cc1F` [Example 164, (S)-1′-(5-chloropyrazin-2-yl)-3-(2,5-difluoro-4-(methylsulfonyl)phenoxy)-[1,4′-bipiperidin]-2-one], the “cAMP production in HEK-293 cells” value was found to be 21.6 nmol and the Fold over baseline worked out at 4.3.

Turning to `CCc1cnc(N2CCC(N3CCC[C@H](Oc4cc(F)c(S(C)(=O)=O)cc4F)C3=O)CC2)nc1` [Example 165, (S)-3-(2,5-difluoro-4-(methylsulfonyl)phenoxy)-1′-(5-ethylpyrimidin-2-yl)-[1,4′-bipiperidin]-2-one], the “cAMP production in HEK-293 cells” value stood at 16.0 nmol and the Fold over baseline came to 3.2.

Take `CS(=O)(=O)c1cc(F)c(O[C@H]2CCN(C3CCN(c4ncc(C(F)(F)F)cc4F)CC3)C2=O)cc1F` [Example 166, (S)-3-(2,5-difluoro-4-(methylsulfonyl)phenoxy)-1-(1-(3-fluoro-5-(trifluoromethyl)pyridin-2-yl)piperidin-4-yl)pyrrolidin-2-one]: the “cAMP production in HEK-293 cells” value came to 15.3 nmol and the Fold over baseline is listed as 3.6.

Source of the values: patent US8754226B2, “Piperidinyl-substituted lactams as GPR119 modulators” (Array BioPharma Inc., priority 2010, dated 2014).
